# Test results as given in paper PMC10759609, “A novel PDPN antagonist peptide CY12-RP2 inhibits melanoma growth via Wnt/β-catenin and modulates the immune cells” (Journal of Experimental & Clinical Cancer Research : CR, 2024).
# Peptide text beside a SMILES is read from it.
# Columns and labels:
# [1] = tested on: Wnt/β-catenin signaling pathway; assay: Western blot, EMT and Wnt/β-catenin pathway, melanoma cells; type: cell-based; settings: melanoma cells treated with peptide
# Method: (§1) Melanoma cells were cultured in a 60 mm dish with a complete medium and various peptide concentrations (0 μM, 5 μM, 25 μM). Protein was extracted after cells were cultured or treated for 48 h using protein lysis buffer, separated using a 10% or 15% Bis–Tris PAGE gel (Epizyme Biomedical Technology, Shanghai, China), and transferred onto a PVDF membrane (Thermo Fisher Scientific) according to standard techniques. The Western blots were imaged using Bio-rad Chemidoc MP and quantified using ImageJ software (NIH).
# (§2) Fig. S4: The inhibition of cells metastasis and invasion by CY12-RP2 can be […]
# (A, B) The inhibition of CY12-RP2 on the migration capacity of melanoma cell lines was reversed by SKL2001 (A). Statistical analysis was performed to determine the migrated distance (B). The power field scale bar, 100 μm. (C, D) Effect of CY12-RP2 on the invasive ability of melanoma cell lines were reversed by SKL2001 (C). […]
# (A) TUNEL analysis of apoptosis was conducted on orthotopic xenografts tumor sections using fluorescence staining. […] (B) Fluorescence staining of Ki67 was carried out on orthotopic xenograft tumor sections.
# (§3) The power field scale bar, 100 μm. (C) Serum His-CY12-RP2 levels of the orthotopic xenografts mice treated by various dosage of CY12-RP2 were measured by His-ELISA kit. […]
# (§4) kit. (E) Serum ALT, AST, TG, and γ-GT levels of the orthotopic xenografts model were measured by ELISA. […]
# A875 cellular spheroids = assay: 3D spheroid diameter, A875; type: cell-based; settings: only at 200 μM, 5 days
# Method: A375 and A875 cells were collected and suspended in Matrigel (Corning) with a density of 1.0 × 10^7 cells per mL. 3D spheroids were fabricate using cell-processing system that have two pumps. One pump was loaded with Matrigel and another with fluorocarbon oil (3 M NOVEC, HFE-7000). The flow rate of Matrigel was 20 μL/min and the fluorocarbon oil rate was 30 μL/min. The 3D spheroids were incubated at 37 °C with 5% CO2 after printing. Culturing medium was DMEM medium supplemented with 10% FBS, and 100 IU of penicillin and […] streptomycin. The medium was changed every 3 days. Afterward, the 3D spheroids were harvested for drug analysis.
# Prepared melanoma cells spheroids were plated in 48-well plates. Following incubation for 3 days, the spheroids were exposed to different concentrations (0, 50, 100 and 200 μM) of CY12-RP2, and changes in spheroid diameter were detected after 5 days of treatment. Additionally, melanoma cell spheroids were treated with various concentrations of CY12-RP2 as described previously, and after 72 h, the spheroids were stained for immunofluorescence with caspase 3 primary antibody. The specific experimental procedures refer to the following immunofluorescence analysis. Additionally, we co-cultured peptide-stimulated PBMC with spheroids to determine the tumor-killing ability of activated PBMC.
# A875 cells = assay: Transwell matrigel invasion, A875; type: cell-based; settings: transwell matrigel, 0, 5, 25 μM, 48 h
# Method: For invasion assay, matrigel (Corning, New York, USA) was coated on the upper surface of the upper chamber. The upper chamber was filled with DMEM medium containing 2% FBS, while the lower chamber contained a medium supplemented with 20% FBS. In brief, melanoma cells (A375 GFP, A875 GFP, A375 PDPN^−/−, and A875 PDPN^+/+ cells) were seeded in the upper chamber of the transwell plate (Corning, New York, USA) at about 5 × 10^4 cells/well with the medium as described above. For peptide functionality experiments, A375 and A875 cells were seeded in the upper chamber of the transwell plate at a density of 5 × 10^4 cells/well with various peptide concentrations (0 μM, 5 μM, 25 μM). Transwell inserts were fixed using 4% paraformaldehyde after 48 h cell invasion, and crystalline violet was used for staining. The quantities of invading cells were quantified using ImageJ software (NIH).
# melanoma cells = assay: Melanoma cell / stimulated PBMC co-culture killing; type: cell-based; settings: PBMC ratios 0%-50%, 48 h, crystal violet
# Method: PBMCs (Shenzhen People's Hospital. Shenzhen, China)) from a healthy donor were isolated using a density gradient centrifugation procedure. Firstly, the immune cell proportions analysis of PBMCs was measured using flow cytometry. We then investigated the effect of CY12-RP2 on the cytokines in PBMCs using ELISA assays. Briefly, PBMCs (5 × 10^5 cells/well) were cultured in 24-well plates with RPMI1640 containing 10% FBS for 24 h, and the cells were stimulated with CY12-RP2 (50 µM) for 48 h. Afterward, supernatants were collected for subsequent assays. […] The experimental results were then observed by crystal violet staining after 48 h.
# [2] = tested on: B16F10-Luc lung metastasis; type: in vivo, BALB/c mice; settings: 25 and 100 mg/kg i.v. every two days, 15 days
# Method: For pulmonary metastasis assays, 6- to 8-week-old female BALB/c mice were administered with 5 × 10^5 B16F10-Luc cells via tail vein to establish an experimental pulmonary metastasis model of melanoma. CY12-RP2 was administered to the mice intravenously at high and low doses (25 mg/kg and 100 mg/kg) every two days, and the mice were sacrificed after 15 days of treatment. Pulmonary metastases were evaluated using bioluminescence imaging on the 2nd, 5th, 10th, 15th and 20th day after B16F10-Luc cells injection. Subsequently, the BALB/c mice were sacrificed, and the organs including the heart, liver, spleen, lung, and kidney were collected and imaged for evaluation of micrometastases. The xenografts and organs were kept in a 4% paraformaldehyde solution for subsequent histological assays.
# [3] = tested on: EMT and apoptosis signaling in A375 cells; assay: Western blot, EMT and apoptosis proteins, A375; type: cell-based; settings: 0, 5, 25 μM, 48 h
# Method: as §1
# [4] = tested on: A375 xenograft tumor cells; assay: TUNEL immunofluorescence of xenograft tumors; type: in vivo, BALB/c nude mice
# Method: as §2
# (A, B) The inhibition of CY12-RP2 on the migration capacity of melanoma cell lines was reversed by SKL2001 (A). Statistical analysis was performed to determine the migrated distance (B). The power field scale bar, 100 μm. (C, D) Effect of CY12-RP2 on the invasive ability of melanoma cell lines were reversed by SKL2001 (C).
# Statistical analysis was performed to count the invaded cells (D). The power field scale bar, 100 μm. (E) Western blot assay was also performed to detect the proteins related to EMT and Wnt/β-catenin signaling pathway, including N-cadherin, Vimentin, snail, Dvl2, Phospho-β-catenin-S675, β-catenin, Phospho-GSK3β-Ser9 and GSK3β by CY12-RP2 with or without SKL2001 (50 μM). Data are presented as mean ± SD. *p < […]
# Fig. S5: Effects and toxicity of CY12-RP2 in vivo
# (A) TUNEL analysis of apoptosis was conducted on orthotopic xenografts tumor sections using fluorescence staining. The power field scale bar, 100 μm. (B) Fluorescence staining of Ki67 was carried out on orthotopic xenograft tumor sections.
# as §3, §4
# A375 cells = assay: Colony formation, A375; type: cell-based
compound,measurement,setting,value
CC(C)C[C@H](NC(=O)[C@H](Cc1ccc(O)cc1)NC(=O)[C@@H](N)[C@@H](C)O)C(=O)N[C@@H](CS)C(=O)N[C@H](C(=O)N[C@@H](C)C(=O)N[C@@H](CS)C(=O)N[C@@H](CC(=O)O)C(=O)N[C@@H](Cc1ccc(O)cc1)C(=O)N[C@H](C(=O)N[C@@H](Cc1c[nH]cn1)C(=O)N[C@@H](Cc1c[nH]cn1)C(=O)O)[C@@H](C)O)[C@@H](C)O [CY12-RP2] (H-TYLCTACDYTHH-OH; N-terminus and C-terminus assumed),Wnt/β-catenin pathway,[1],could inhibit the Wnt/β-catenin pathway
same,relative spheroid diameter,A875 cellular spheroids,only a high concentration of CY12-RP2 (200 μM) could decrease the diameter
same,invasion,A875 cells,could only be inhibited at high concentrations
same,viability of tumor cells with CY12-RP2-pretreated PBMC,melanoma cells,declined significantly
same,pulmonary metastases,"[2]; bioluminescence, vs control",significantly fewer pulmonary metastases
same,size of nodules and frequency of metastases in the lungs,[2]; ex vivo organ bioluminescence,significant reduction
same,metastatic nodules in the lung,[2]; representative nodule images,significantly reduced
same,"expression of E-cadherin, Caspase-9, Caspase-3, and Bax",[3],significantly increased
same,"expression of N-cadherin, vimentin, snail, and BCL2",[3],decreased
same,apoptotic tumor cells (TUNEL),[4],more apoptotic tumor cells were detected
same,colony formation,A375 cells,significantly suppress the colony formation of A375 cells in a dose-dependent manner
